{"source": "patent US20260262643A1", "about": "“HERBICIDAL BENZOXAZINES” (FMC CORPORATION, priority 2022, published 2026)", "key": {"[1]": {"tested_on": "kochia", "assay": "Test C preemergence", "type": "in vivo, Bassia scoparia", "details": "0 to 100 scale (0 no effect, 100 complete control)", "procedure,_shortened": "(§1)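 Soil-applied (pre) and foliar (post, 1–2 leaf, 2–10 cm) sprays; surfactant-containing non-phytotoxic solvent vehicle; loam/sand substrate. Readout: visual % control at 10 d, greenhouse, versus untreated.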"}, "[2]": {"tested_on": "ryegrass, Italian", "assay": "Test C postemergence", "type": "in vivo, Lolium multiflorum", "details": "10 days", "procedure,_shortened": "as §1"}, "[3]": {"tested_on": "barnyardgrass", "assay": "Test C postemergence", "type": "in vivo, Echinochloa crusgalli", "details": "10 days", "procedure,_shortened": "as §1"}, "[4]": {"tested_on": "pigweed, palmer", "assay": "Test C preemergence", "type": "in vivo, Amaranthus palmeri", "details": "0 to 100 scale (0 no effect, 100 complete control)", "procedure,_shortened": "as §1"}, "[5]": {"tested_on": "barnyardgrass", "assay": "Test D flooded paddy test", "type": "in vivo, Echinochloa crus-galli", "details": "250 g ai/ha, applied to paddy water, visual rating after 13 to 14 days, scale 0 to 100 (0 no effect, 100 complete control)", "procedure,_shortened": "(§2)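 Seedlings reached the 2-leaf stage, then pots were flooded to 3 cm over the soil surface. Compound was applied into the water, depth was maintained, and plants stayed in the greenhouse 13 to 14 days before visual scoring (0–100) relative to controls.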"}, "[6]": {"tested_on": "green foxtail", "assay": "Test C postemergence", "type": "in vivo, Setaria viridis", "details": "10 days", "procedure,_shortened": "as §1"}, "[7]": {"tested_on": "galium", "assay": "Test C postemergence", "type": "in vivo, Galium aparine", "details": "10 days", "procedure,_shortened": "as §1"}, "[8]": {"tested_on": "sedge, umbrella", "assay": "Test D flooded paddy test", "type": "in vivo, Cyperus difformis", "details": "250 g ai/ha, applied to paddy water, visual rating after 13 to 14 days, scale 0 to 100 (0 no effect, 100 complete control)", "procedure,_shortened": "as §2"}, "[9]": {"tested_on": "blackgrass", "assay": "Test C postemergence", "type": "in vivo, Alopecurus myosuroides", "details": "10 days", "procedure,_shortened": "as §1"}, "[10]": {"tested_on": "ragweed", "assay": "Test C postemergence", "type": "in vivo, Ambrosia artemisiifolia", "details": "10 days", "procedure,_shortened": "as §1"}, "[11]": {"tested_on": "oat, wild", "assay": "Test C preemergence", "type": "in vivo, Avena fatua", "details": "0 to 100 scale (0 no effect, 100 complete control)", "procedure,_shortened": "as §1"}, "[12]": {"tested_on": "ragweed", "assay": "Test C preemergence", "type": "in vivo, Ambrosia artemisiifolia", "details": "0 to 100 scale (0 no effect, 100 complete control)", "procedure,_shortened": "as §1"}, "[13]": {"tested_on": "kochia", "assay": "Test C postemergence", "type": "in vivo, Bassia scoparia", "details": "10 days", "procedure,_shortened": "as §1"}, "[14]": {"tested_on": "barnyardgrass", "assay": "Test C preemergence", "type": "in vivo, Echinochloa crusgalli", "details": "0 to 100 scale (0 no effect, 100 complete control)", "procedure,_shortened": "as §1"}, "[15]": {"tested_on": "horseweed", "assay": "Test C postemergence", "type": "in vivo, Erigeron canadensis", "details": "10 days", "procedure,_shortened": "as §1"}, "[16]": {"tested_on": "pigweed, palmer", "assay": "Test C postemergence", "type": "in vivo, Amaranthus palmeri", "details": "10 days", "procedure,_shortened": "as §1"}, "[17]": {"tested_on": "blackgrass", "assay": "Test C preemergence", "type": "in vivo, Alopecurus myosuroides", "details": "0 to 100 scale (0 no effect, 100 complete control)", "procedure,_shortened": "as §1"}, "[18]": {"tested_on": "wheat", "assay": "Test C postemergence", "type": "in vivo, Triticum aestivum", "details": "10 days", "procedure,_shortened": "as §1"}, "[19]": {"tested_on": "green foxtail", "assay": "Test C preemergence", "type": "in vivo, Setaria viridis", "details": "0 to 100 scale (0 no effect, 100 complete control)", "procedure,_shortened": "as §1"}, "[20]": {"tested_on": "rice", "assay": "Test D flooded paddy test", "type": "in vivo, Oryza sativa", "details": "250 g ai/ha, applied to paddy water, visual rating after 13 to 14 days, scale 0 to 100 (0 no effect, 100 complete control)", "procedure,_shortened": "as §2"}, "[21]": {"tested_on": "oat, wild", "assay": "Test C postemergence", "type": "in vivo, Avena fatua", "details": "10 days", "procedure,_shortened": "as §1"}, "[22]": {"tested_on": "wheat", "assay": "Test C preemergence", "type": "in vivo, Triticum aestivum", "details": "0 to 100 scale (0 no effect, 100 complete control)", "procedure,_shortened": "as §1"}, "[23]": {"tested_on": "soybean", "assay": "Test C postemergence", "type": "in vivo, Glycine max", "details": "10 days", "procedure,_shortened": "as §1"}, "[24]": {"tested_on": "corn", "assay": "Test C postemergence", "type": "in vivo, Zea mays", "details": "10 days", "procedure,_shortened": "as §1"}, "[25]": {"tested_on": "ryegrass, Italian", "assay": "Test C preemergence", "type": "in vivo, Lolium multiflorum", "details": "0 to 100 scale (0 no effect, 100 complete control)", "procedure,_shortened": "as §1"}, "[26]": {"tested_on": "soybean", "assay": "Test C preemergence", "type": "in vivo, Glycine max", "details": "0 to 100 scale (0 no effect, 100 complete control)", "procedure,_shortened": "as §1"}, "[27]": {"tested_on": "ducksalad", "assay": "Test D flooded paddy test", "type": "in vivo, Heteranthera limosa", "details": "250 g ai/ha, applied to paddy water, visual rating after 13 to 14 days, scale 0 to 100 (0 no effect, 100 complete control)", "procedure,_shortened": "as §2"}, "[28]": {"tested_on": "corn", "assay": "Test C preemergence", "type": "in vivo, Zea mays", "details": "0 to 100 scale (0 no effect, 100 complete control)", "procedure,_shortened": "as §1"}, "[29]": {"details": "Preemergence, 500 g ai/ha, visual rating after 10 days"}, "[30]": {"details": "Test C, preemergence, 125 g ai/ha"}, "[31]": {"details": "125 g ai/ha, postemergence, 0 to 100 scale, 0 no effect, 100 complete control"}, "[32]": {"details": "Postemergence, 500 g ai/ha, visual 0 to 100 scale (0 no effect, 100 complete control)"}}}
{"smiles": "COc1ccc(-n2cncn2)cc1C(=O)N1C[C@H](C)Oc2ccccc21", "note": "[Compound 228]", "values": [{"measurement": "Plant response rating, Kochia", "setting": "[1]; [29]", "result": 60}, {"measurement": "Kochia plant response rating", "setting": "[1]; [30]", "result": 0}, {"measurement": "Plant response rating, Ryegrass, Italian", "setting": "[2]; [31]", "result": 100}, {"measurement": "Plant response rating, Ryegrass, Italian", "setting": "[2]; [32]", "result": 100}, {"measurement": "Plant response rating, Barnyardgrass", "setting": "[3]; [31]", "result": 60}, {"measurement": "Plant response rating, Barnyardgrass", "setting": "[3]; [32]", "result": 90}, {"measurement": "Plant response rating, Pigweed, Palmer", "setting": "[4]; [29]", "result": 100}, {"measurement": "Pigweed, Palmer plant response rating", "setting": "[4]; [30]", "result": 100}, {"measurement": "Plant response rating, Barnyardgrass (Flood)", "setting": "[5]", "result": 15}, {"measurement": "Plant response rating, Foxtail, Green", "setting": "[6]; [31]", "result": 30}, {"measurement": "Plant response rating, Foxtail, Green", "setting": "[6]; [32]", "result": 90}, {"measurement": "Plant response rating, Galium", "setting": "[7]; [31]", "result": 100}, {"measurement": "Plant response rating, Galium", "setting": "[7]; [32]", "result": 100}, {"measurement": "Plant response rating, Sedge, Umbrella (Flood)", "setting": "[8]", "result": 95}, {"measurement": "Plant response rating, Blackgrass", "setting": "[9]; [31]", "result": 80}, {"measurement": "Plant response rating, Blackgrass", "setting": "[9]; [32]", "result": 90}, {"measurement": "Plant response rating, Ragweed", "setting": "[10]; [31]", "result": 10}, {"measurement": "Plant response rating, Ragweed", "setting": "[10]; [32]", "result": 30}, {"measurement": "Plant response rating, Oat, Wild", "setting": "[11]; [29]", "result": 90}, {"measurement": "Oat, Wild plant response rating", "setting": "[11]; [30]", "result": 40}, {"measurement": "Plant response rating, Ragweed", "setting": "[12]; [29]", "result": 50}, {"measurement": "Ragweed plant response rating", "setting": "[12]; [30]", "result": 40}, {"measurement": "Plant response rating, Kochia", "setting": "[13]; [31]", "result": 50}, {"measurement": "Plant response rating, Kochia", "setting": "[13]; [32]", "result": 70}, {"measurement": "Plant response rating, Barnyardgrass", "setting": "[14]; [29]", "result": 100}, {"measurement": "Barnyardgrass plant response rating", "setting": "[14]; [30]", "result": 90}, {"measurement": "Plant response rating, Horseweed", "setting": "[15]; [31]", "result": 10}, {"measurement": "Plant response rating, Horseweed", "setting": "[15]; [32]", "result": 30}, {"measurement": "Plant response rating, Pigweed, Palmer", "setting": "[16]; [31]", "result": 70}, {"measurement": "Plant response rating, Pigweed, Palmer", "setting": "[16]; [32]", "result": 90}, {"measurement": "Plant response rating, Blackgrass", "setting": "[17]; [29]", "result": 90}, {"measurement": "Blackgrass plant response rating", "setting": "[17]; [30]", "result": 80}, {"measurement": "Plant response rating, Wheat", "setting": "[18]; [31]", "result": 50}, {"measurement": "Plant response rating, Wheat", "setting": "[18]; [32]", "result": 90}, {"measurement": "Plant response rating, Foxtail, Green", "setting": "[19]; [29]", "result": 100}, {"measurement": "Foxtail, Green plant response rating", "setting": "[19]; [30]", "result": 100}, {"measurement": "Plant response rating, Rice (Flood)", "setting": "[20]", "result": 25}, {"measurement": "Plant response rating, Oat, Wild", "setting": "[21]; [31]", "result": 30}, {"measurement": "Plant response rating, Oat, Wild", "setting": "[21]; [32]", "result": 80}, {"measurement": "Plant response rating, Wheat", "setting": "[22]; [29]", "result": 30}, {"measurement": "Wheat plant response rating", "setting": "[22]; [30]", "result": 20}, {"measurement": "Plant response rating, Soybean", "setting": "[23]; [31]", "result": 100}, {"measurement": "Plant response rating, Soybean", "setting": "[23]; [32]", "result": 100}, {"measurement": "Plant response rating, Corn", "setting": "[24]; [31]", "result": 40}, {"measurement": "Plant response rating, Corn", "setting": "[24]; [32]", "result": 80}, {"measurement": "Plant response rating, Ryegrass, Italian", "setting": "[25]; [29]", "result": 90}, {"measurement": "Ryegrass, Italian plant response rating", "setting": "[25]; [30]", "result": 90}, {"measurement": "Plant response rating, Soybean", "setting": "[26]; [29]", "result": 90}, {"measurement": "Soybean plant response rating", "setting": "[26]; [30]", "result": 70}, {"measurement": "Plant response rating, Ducksalad (Flood)", "setting": "[27]", "result": 80}, {"measurement": "Plant response rating, Corn", "setting": "[28]; [29]", "result": 60}, {"measurement": "Corn plant response rating", "setting": "[28]; [30]", "result": 10}]}
